One data set concerns SaOS-2 cells. Nature of the data set: MTT-dye reduction cytotoxicity assay, SaOS-2. Type of data set: cell-based, human. Particulars: Homo sapiens, SAOS-2. As to the method: (§1) The research included four leukemic and three cancer human cell lines: HL-60 (acute myeloid leukemia), SKW-3 (KE-37 derivative) (T-cell leukemia), BV-173 and K-562 (chronic myeloid leukemia), MDA-MB-231 (ER-negative breast carcinoma), MCF-7 (ER-positive breast adenocarcinoma), and SaOS-2 (osteogenic sarcoma). The cells were provided from the German Collection of Microorganisms and Cell Cultures (DSMZ, Braunschweig, Germany). The solid tumor cell lines (MDA-MB-231, MCF-7, and SaOS-2) were incubated in 90% RPMI-1640 supplemented with 10% fetal bovine serum (FBS), non-essential amino acids, 1 mM sodium pyruvate, and […] human insulin as monolayer adherent cultures. The remaining cell lines were cultivated as a suspension culture in cell culture flasks at 37 °C in an incubator “BB 16-Function Line” Heraeus (Kendro, Hanau, Germany) with humidified atmosphere and 5% CO2 under standard conditions–RPMI-1640 liquid media supplemented with 10% FBS and 2 mM L-glutamine. The cells were kept in log phase by supplementing with fresh media after removing cell suspension aliquots two or three times each week.
(§2) At least eight wells were used for each concentration.
(In general: Tetrazolium dyes change colour on reduction, which living cells bring about.)

In another data set the test system is BV-173 cells. The experiment in a line: MTT-dye reduction cytotoxicity assay, BV-173. Type of data set: cell-based, human. Particulars: Homo sapiens, BV-173; training set; some activities published before [26-32], the rest measured for this study; read-out: IC50 ± standard deviation, BV-173. As to the method:
as §1, §2

The next data set deals with K-562 cells. The experiment in a line: MTT-dye reduction cytotoxicity assay, K-562. Type of data set: cell-based, human. Particulars: for IC50: Homo sapiens, K562, training set, some activities published before [26-32], the rest measured for this study, read-out: IC50 ± standard deviation, K-562; for Ligand Efficiency (LE) K-562: LE = pIC50/number of heavy atoms. On the procedure:
as §1, §2

In a further data set the test system is KE-37 cells. The experiment in a line: MTT-dye reduction cytotoxicity assay, KE-37. The settings on record: Homo sapiens, KE-37; training set; some activities published before [26-32], the rest measured for this study; read-out: IC50 ± standard deviation, KE-37. The format is cell-based, human. On the procedure:
as §1, §2

For a further data set, the system named is MDA-MB-231 cells. The experiment in a line: MTT-dye reduction cytotoxicity assay, MDA-MB-231. The format is cell-based, human. The settings on record: Homo sapiens, MDA-MB-231; training set; some activities published before [26-32], the rest measured for this study; read-out: IC50 ± standard deviation, MDA-MB-231. On the procedure: as §1, §2
A further data set has as its system MCF-7 cells. The experiment in a line: MTT-dye reduction cytotoxicity assay, MCF-7. Particulars: Homo sapiens, MCF7; training set; some activities published before [26-32], the rest measured for this study; read-out: IC50 ± standard deviation, MCF-7. Type of data set: cell-based, human. As to the method:
as §1, §2

In the next data set the test system is HL-60 cells. Nature of the data set: MTT-dye reduction cytotoxicity assay, HL-60. The settings on record: Homo sapiens, HL-60; training set; some activities published before [26-32], the rest measured for this study; read-out: IC50 ± standard deviation, HL-60. The format is cell-based, human. As to the method: as §1, §2
Data set [1] is described as follows: MTT-dye reduction cytotoxicity assay, normal HEK-293. The settings on record: human. As to the method: To assess the selectivity of the newly synthesized derivatives, they were tested on the normal human embryonic kidney HEK-293 cell line. The derived IC50 values were used to calculate the selectivity index according to the formula SI = IC50 (normal cells)/IC50 (cancer cells).
The cytotoxic activity of the examined substances was determined using Mossman’s MTT [3-(4,5-dimethylthiazol-2-yl)-2,5-diphenyltetrazolium bromide] dye reduction assay. The approach is based on the reduction of the yellow tetrazolium salt MTT to a violet formazan in live cells via mitochondrial succinate dehydrogenase. In brief, exponentially developing cells were seeded at a density of 1 × 10^5 cells per ml in 96-well flat-bottomed microplates (100 μL/well), and after 24 h of incubation at 37 °C, they were treated to varied doses of the tested substances for 72 h. At least eight wells were used for each concentration. Following the incubation with the test compounds, aliquots of 10 μL MTT solution (10 mg/mL in PBS) were applied to each well. The microplates were then incubated at 37 °C for 4 h before the MTT-formazan crystals were dissolved with 100 μL/well 5% HCOOH in 2-propanol. The MTT-formazan absorbance was measured at 580 nm using a microprocessor-controlled microplate reader (Labexim LMR-1).
The cell survival data were standardized as a percentage of the untreated control (set as 100% viability). The biological data were processed statistically using Student’s t-test, where values were considered statistically significant at p ≤ 0.05. The corresponding IC50 values were obtained to allow quantitative merit for the assessment of the relative potencies of the compounds under investigation. Each data point represents the arithmetic mean ± standard deviation (sd) of at least eight independent experiments.

The mark [2] stands for this setting: training set, some activities published before [26-32], the rest measured for this study, read-out: IC50 ± standard deviation, SaOS-2.

SMILES strings stand for the structures. Like-named read-outs stand apart in the source and are kept apart here. A value given as a limit tells only on which side of the number the result lay.

What is called IC50 is the concentration that gives 50% inhibition.

Regarding `O=C(N/N=C/c1cc([N+](=O)[O-])ccc1O)c1ccncc1` [Compound 8], the IC50 in the data set on SaOS-2 cells (setting [2]) was determined as 35.7 ± 4.3 µM; with BV-173 cells, 10.2 ± 1.1 µM; in the data set with K-562 cells, 19 ± 2.7 µM; in the data set with KE-37 cells, 17 ± 3.1 µM; with MDA-MB-231 cells it was 72.3 ± 5.6 µM; in the data set on MCF-7 cells, 0.18 ± 0.03 µM. Besides, in the data set with HL-60 cells, the IC50 was 15 ± 2.4 µM. Besides, the “Ligand Efficiency (LE) K-562” value in the data set with K-562 cells is listed as 0.225.
As for `COc1ccc(O)c(/C=N/NC(=O)c2ccc(O)cc2)c1` [Compound 10], the 50% inhibitory concentration (IC50) was determined as 3.86 ± 0.9 µM in the data set on BV-173 cells; 14.8 ± 2.5 µM in the data set on KE-37 cells; 12.1 ± 1.9 µM with MDA-MB-231 cells; 3.54 ± 0.5 µM in the data set with MCF-7 cells; 13.8 ± 3.1 µM with HL-60 cells.
The corresponding values for `COc1ccc(O)c(/C=N/NC(=O)c2ccccc2)c1` [Compound 9] are 3.15 ± 0.8 µM, 3.38 ± 1 µM, 4.46 ± 1.1 µM, 0.91 ± 0.3 µM and 5.29 ± 1.2 µM.
As for `O=C(N/N=C/c1cc(Br)ccc1O)c1ccncc1` [Compound 5], the IC50 in the data set on SaOS-2 cells (setting [2]) was 146 ± 8.9 µM; in the data set on BV-173 cells, 0.63 ± 0.2 µM; with K-562 cells it was 0.14 ± 0.09 µM; with KE-37 cells, 2.53 ± 1 µM; in the data set with MDA-MB-231 cells, 38.4 ± 2 µM; in the data set on MCF-7 cells, 0.26 ± 0.03 µM. Also, the IC50 in the data set with HL-60 cells worked out at 4.13 ± 1.2 µM. In addition, the “Ligand Efficiency (LE) K-562” value in the data set on K-562 cells is 0.360.
For `N[C@@H](Cc1ccc(N(CCCl)CCCl)cc1)C(=O)O` [Melphalan, 2-amino-3-[4-bis(2-chloroethyl)amino]phenylpropanoic acid, reference compound], the IC50 in the data set on SaOS-2 cells (72 h treatment, read-out: IC50 exp, SaOS-2) was found to be 31.4 ± 5.4 µM; in the data set on SaOS-2 cells (setting [2]) it was 31.4 ± 5.4 µM. In data set [1], this compound displayed a concentration for half-maximal inhibition (IC50) at 72 h of 24.8 ± 2.9 µM.
As for `O=C(N/N=C/c1cc([N+](=O)[O-])ccc1O)c1ccc(O)cc1` [Compound 7], the 50% inhibitory concentration (IC50) in the data set with SaOS-2 cells (setting [2]) is 199 ± 12 µM; in the data set with BV-173 cells, 7.62 ± 1 µM; in the data set on K-562 cells it was greater than 200 µM; with KE-37 cells it was 19.9 ± 2.2 µM; with MDA-MB-231 cells, greater than 200 µM; in the data set on MCF-7 cells, 4.95 ± 0.06 µM. Further, in the data set with HL-60 cells, the IC50 stood at 14.5 ± 2.1 µM.
As to `COc1cccc(/C=N/NC(=O)c2ccccc2)c1O` [Compound 1], the IC50 was 25.5 ± 6.2 µM with SaOS-2 cells (setting [2]); 20.8 ± 4.2 µM in the data set on BV-173 cells; 27 ± 2.7 µM with K-562 cells; 9.8 ± 3.1 µM with KE-37 cells; 25.3 ± 2.7 µM in the data set on MDA-MB-231 cells; 22.5 ± 5.4 µM in the data set on MCF-7 cells. Further, the IC50 with HL-60 cells turned out to be 11.3 ± 2.6 µM. In addition, the “Ligand Efficiency (LE) K-562” value in the data set on K-562 cells is 0.228.

These data come from article PMC10138506, “Design, Synthesis and Cytotoxic Activity of Novel Salicylaldehyde Hydrazones against Leukemia and Breast Cancer” (International Journal of Molecular Sciences, 2023).
